Assays:
[1] = tested on: endogenous hypercholesterolemia in guinea pigs; test: Model of endogenous hypercholesterolemia in guinea pigs (fat loading); format: in vivo, guinea pig; set-up: Serum total cholesterol / Serum total triglyceride levels: unit not given here; settings: for Serum total cholesterol / Serum total triglyceride levels: fat loading + compound 500 μg/kg orally
Method: The study was carried out on male guinea pigs (Aguti line) weighing 304±25 g. The experiment lasted 31 days. The control group included 6 guinea pigs (intact animals). The compounds studied were administered from day 1 of the experiment (from day 1 of administering fat loading).
The animals of experimental groups received orally for 31 days a compound studied and fat loading. The compound studied at doses indicated below was administered in the form of an aqueous solution (0.5 ml per an animal); fat loading (a mixture of porcine fat and preliminary heated corn oil at 4:1 ratio by volume, at the rate of 5 ml/kg weight 0.5 h post administering the substance studied.
1) “control”—intact animals;
2) “fat”—animals that received fat loading only
3) “compound IV”—animals that received fat loading+compound IV at dose 500 μg/kg body weight;
4) “compound V”—animals that received fat loading+compound V at dose 500 μg/kg body weight.
Statistical processing was carried out using a mono-factorial analysis of variance.

[2] = tested on: allergic pneumonitis in guinea pigs; test: Model of allergic pneumonitis in guinea pigs (broncho-alveolar wash-off cytology); format: in vivo, guinea pig; settings: 0.1% solution, inhalations daily for 6 days
Method: The model of allergic pneumonitis in guinea pigs was used.
Immunization of the animals was similar to that described in Example 7.
24 hours post the last ovalbumin administration broncho-alveolar wash-off was collected (through a cannula inserted into the trachea), and changes in bronchial mucosa was assessed using a complex of histological and cytological methods.
The compounds tested (0.1% solution) were daily administered in the form of inhalations using a nebulizing device for 6 days; at day 6 of administration, antigen (OA) challenge was performed.
(§1) Broncho-alveolar wash-off was obtained in rats and guinea pigs under hexenal anesthesia by double washing the lungs through the trachea with 10 ml normal saline. Viability of cells was determined in the test with tryptane blue. Absolute number of cells in 1 ml (cytosis) was determined in the broncho-alveolar wash-off liquid (BAW) using the Goryaev's chamber. In the smears of the BAW liquid precipitate obtained using centrifugation at 200 g for 10 minutes and then stained according to Romanovskcy-Gimza, endopulmonary cytogram was calculated (in percent) [Avtsyn A. P., Lukomskij G. I., Romanova L. K. et al. Endopul'monal'naya cytogramma.//Sov. Med. 1982. No 7. pp. 8-14].

[3] = tested on: Sephadex A-25 induced pneumonitis in Wistar rats; test: Sephadex-induced (6-day) pneumonitis in rats; format: in vivo, rat
Method: The Model of Sephadex-Induced (6-Day) Pneumonitis in Rats
Male Wistar rats weighing 270-300 g were used in the tests.
Inflammation in the lungs was induced by a single inhalation of sephadex A-25 (hydrophilic powder with particle sizes from 20 to 80 μm) at dose 5 mg/kg using a dosing device which is a laboratory analog of the inhaler “Cyclohaler” (the Scientific-Research Institute for Pulmonology of the RF).
Sephadex A-25 at dose 5 mg per 1 kg body weight was administered to rats under ester anesthesia using an original dosing device for inhalation administering dry powders. Following administration of Sephadex A-25, Wistar rats rapidly recovered form anesthesia, and no peculiarities in their behavior and respiration character were noted. The substances in the form of a dry powder were administered by inhalation at dose 500 μg/kg 1 hour post Sephadex administration, then for 5 days in succession once daily at one and the same morning hours. The control was represented by two groups: a group of intact animals, and a group of rats administered once with Sephadex by inhalation.
The results of therapeutic action of pharmacological substances on pneumonitis development were assessed using morphological and morphometric parameters (volume density and alveolitis) 6 days post aerosol Sephadex administration.
Histological examinations of the lungs stained by hematoxyline and eosine.
4-5 μm thick histological lung slices were prepared wherein neutrophil number was calculated as well as volume density of alveolitis and emphysema was assessed using the Avtandilov's mesh [Avtandilov G. G., Vvedeniye v kolichestvennuyu pathologicheskuyu morphologiyu.//Moscow. “Meditsina” publishers. 1980. p. 203]. Morphometric examination of pulmonary lymphoid tissue was also carried out. To this end, micro preparations of the lungs were fixed according to the method of Beinenstock et al [Bienenstock J., Johnson N., Perey D. Y. E. Bronchial lymphoid tissue 1. Morphologic characteristics//Lab. Invest. 1973. v. 28 p. 693-698.] […] Volume density of alveolitis and emphysema was determined using the point calculation method.
as §1, with “Med. 1982. No 7. pp. 8-14].” left out

[4] = day 31, blood serum, 500 μg/kg orally (Table 24)
[5] = day 31, blood serum, 500 μg/kg orally (Table 25)

SMILES: O=C(O)CCCC(=O)N[C@@H](Cc1c[nH]cn1)C(=O)O [Compound IV, N^α-glutaryl-L-histidine]
- Serum total cholesterol ([1]; Day 28): 55.5 ± 6.3
- Serum total triglyceride levels ([1]; Day 28): 66.8 ± 6.7
- Serum total cholesterol ([1]; Day 31): 49.2 ± 3.9
- Serum total triglyceride levels ([1]; Day 31): 69.0 ± 13.4
- lowered LDL cholesterol ([1]; by day 31 of the experiment): 37.7%
- lowered total cholesterol level ([1]; by day 31 of the experiment): 33.9%
- Cholesterol, LDL [1, 4]: 42.1 ± 3.5 mg/100 ml
- Cholesterol, Total [1, 4]: 49.2 ± 3.9 mg/100 ml
- Cholesterol, VLDL [1, 4]: 3 ± 0.71 mg/100 ml
- Triglycerides, LDL [1, 5]: 29.6 ± 2.4 mg/100 ml
- Triglycerides, Total [1, 5]: 69 ± 13.4 mg/100 ml
- Triglycerides, VLDL [1, 5]: 33.2 ± 12.3 mg/100 ml
- Absolute number of Macrophags in broncho-alveolar wash-off [2]: 640.1 ± 57.98 in 1 μl
- Cytosis (absolute number of cells in 1 μl) in broncho-alveolar wash-off [2]: 1331.3 ± 277.4 cells in 1 μl
- emphysema (histological examination of the lungs) ([3]; 500 μg/kg by inhalation): not practically detected
- infiltration of interalveolar septa with neutrophils ([3]; 500 μg/kg by inhalation): not noted
- prevalence of alveolitis (histological examination of the lungs) ([3]; compared to the model group, 500 μg/kg by inhalation): significantly lower
- Absolute number of Macrophags in 1 μl BAW ([3]; dry powder by inhalation 500 μg/kg): 152.4 ± 18.5 cells in 1 μl BAW
